How the values were obtained:
[1] = target: T1, HRP-Ab (Armoracia rusticana, UniProt P00433); assay: CLI of HRP-labeled goat anti-mouse IgG (HRP-Ab) in nude mice; assay type: in vivo
T1 construct: purchased ZSGB-Bio Inc. ZB2305
T1 sequence (P00433 31-338 limits assumed): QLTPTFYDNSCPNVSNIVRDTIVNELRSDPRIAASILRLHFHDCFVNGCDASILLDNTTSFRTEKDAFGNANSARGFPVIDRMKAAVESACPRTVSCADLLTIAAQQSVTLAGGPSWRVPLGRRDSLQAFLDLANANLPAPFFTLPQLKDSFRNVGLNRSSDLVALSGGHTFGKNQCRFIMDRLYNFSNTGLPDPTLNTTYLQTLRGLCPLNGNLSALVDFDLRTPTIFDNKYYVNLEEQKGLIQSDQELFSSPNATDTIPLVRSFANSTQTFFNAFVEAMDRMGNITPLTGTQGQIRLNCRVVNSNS
Experimental: The use of the probe was validated using an enzyme-linked immunosorbent assay (ELISA) by imaging in nude mice the HRP-labeled goat anti-mouse IgG (HRP-Ab), a commercially available and commonly used HRP-antibody conjugate. To assess the sensitivity of the CLI, different amounts of the conjugate were administered to three of the legs of a nude mouse with the left foreleg injected with PBS only being the control. […] The brightness of the emission is proportional to the amount of HRP-Ab present. […] However, in the two hind legs, whose total activity of HRP is at 0.015 and 0.030 U, respectively, the emission of light was vivid, and the reduction in luminescence intensity was only about 10% after 60 minutes following the probe administration.
Nude mice used in this work, each weighing 20-26 g, were obtained from the Laboratory Animal Center of the Fourth Military Medical University, China. Research and animal sacrifice protocols are in accordance with the principles and guidelines adopted by the Fourth Military Medical University. The mice were kept for an acclimatization period of 7 days under laboratory conditions (temperature maintained at 22±2° C., 12-hr cycles of alternating illumination and darkness, and free access to food and water) prior to any imaging experiments. Nude mice were anesthetized by isoflurane inhalation, following which 200 μL of a solution of compound 3 or luminol in PBS of pH 7.4 was injected intraperitoneally. For the imaging of HPR or HRP-Ab, the probe solution (2.0×10^−3 M) was first injected, followed by the subcutaneous injection 20 minutes after of PBS and HRP (variable amount in 0.01 M PBS) solutions into the legs of nude mice. The control experiments with the use of luminol were conducted under otherwise identical conditions. IVIS 200 bioluminescence imaging system (Caliper Life Sciences) (f/stop, 1; no optical filter) was used for all imaging experiments. Exposure time was set at 5 minutes with moderate sensitivity, and the binning and field of view (FOV) are 8 and 13.3 cm, respectively. […]

[2] = tested on: raw 264.7 cells; human monocyte; assay: In vitro response to phagocyte respiratory burst; assay type: cell-based; details: 5.0×10^−5 M; PMA or FMLP 100 μg/ml
Experimental: No chemiluminescence was detected in the absence of phorbol 12-myristate 13-acetate for (PMA) or N-formylmethionyl-leucyl-phenyl-alanine (FMLP). (a) CL kinetics resulting from the response of probe 3 to respiratory burst of raw 264.7 cells when stimulated with PMA (100 μg/ml). (b) CL kinetics resulting from the response of probe 3 to respiratory burst of human monocyte (10^6 cells/ml) in hank's when stimulated by FMLP (100 μg/ml). The kinetics curves were recorded with an MPI-A Chemiluminescence Analyzer with the use of probe 3 or luminol (5.0×10^−5 M).

[3] = tested on: acute dermatitis; assay: CLI of acute dermatitis induced by dimethylbenzene; assay type: in vivo, mice; details: 720 μg/kg; 30, 60, 90 min
[4] = tested on: mechanical crush and syringe needle piecing; assay: CLI of mechanical injuries on the tail; assay type: in vivo, mice; details: 200 μL of 2.0×10^−4 M; 0, 20, 40 min
Experimental: (§1) Additional experiments were carried out using test mice suffering from gingival hemorrhage and mechanical injury. For example, nude mice were fed with cooked yolk for 1 week until gingival hemorrhage was visually identified. Various images were acquired (e.g., 0, 20 (supine position), and 30 min (prone position)) after the injection of 200 μL of 2.0×10^−4 M probe 3 or luminol (data not shown). […] Also, images of injuries (e.g., mechanical crush and syringe needle piecing, both on the end to tail) were acquired 0, 20, and 40 min, respectively, after the injection of 200 μL of probe 3 (2.0×10^−4 M).

[5] = tested on: inflammation; assay: CLI of inflammation caused by intramuscular injection of PBS; assay type: in vivo, nude mice; details: PBS intramuscularly two days prior; compared with 18FDG-PET/CT
Experimental: Furthermore, inflammation caused by intramuscular injection of PBS was also clearly imaged using probe 3 and in comparison with results using PET/CT (data not shown). Nude mice were intramuscularly injected with PBS two days prior to said imaging experiments. For the verification of the induced inflammation, 18-Fluorodeoxyglucose-Positron emission tomography/Computed tomography (18FDG-PET/CT) scan, from feet to head, was performed 12 h after the CLI experiment. The test mouse was anesthetized with isoflurane inhalation followed by intraperitoneal injection of 3.7 MBq of ^18FDG. An uptake time of 60 min was allowed before acquisition.

[6] = Acute toxicity in mice; details: mouse, in vivo
Text: The results are summarized in (a).

[7] = Solubility in alkaline and PBS solutions; assay type: physicochemical; details: alkaline and phosphate-buffered saline solutions (PBS, pH=7.4)
Experimental: Oxidation of compound 3 was accompanied by vivid green luminescence when the excited oxidation product (compound 2) underwent deactivation (see FIG. 1).
Solids of compound 3 or luminol were dissolved in 0.01 M NaOH to a final concentration of 8.0×10^−3 M, and the resulting solutions were stored at 4° C. in the absence of light. The solutions were further diluted by using sterile phosphate-buffered saline (PBS, 0.01 M and pH 7.4) as desired in various studies. PMA was dissolved in DMSO to prepare 500 µg/ml solution. HRP was freshly prepared by dilution using sterile PBS.

[8] = target: T2, HRP (Armoracia rusticana, UniProt P00433); assay: CLI of subcutaneously injected HRP in nude mice; assay type: in vivo
T2 construct: purchased Sigma-Aldrich
T2 sequence (P00433 31-338 limits assumed): T1 sequence (P00433 31-338 limits assumed)
Experimental: CLI of HRP in the same nude mouse with the use of compound 3 as probe (7.2 mg per kg body weight, intraperitoneally injected). Against PBS-only control in the left foreleg, the total activity of HRP introduced into the right foreleg, the left hind leg, and the right hind leg were 0.0250, 0.125, and 0.250 U, respectively. The moment when the administration of 3 was completed was set as −20 min (panel (i)) with 0 min (panel (ii)) being the moment when the subcutaneous injection of HRP was finished. The circles in panel (ii) indicate both the sites of HRP introduction and the ROI for which photon-counting integration was performed.
Imaging of HRP was acquired in nude mice pre-injected with compound 3 (720 μg per kg body weight) against a control mouse intraperitoneally injected with luminol. […] To achieve significant CL intensity and to assure the accuracy of photon counting, the probe at a concentration of 720 μg/kg was used in subsequent studies in nude mice whose right foreleg, left hind leg, and right hind leg were injected with HRP of a total activity of 12.5 U, 25.0 U, and 50.0 U, respectively. Significant luminescence was produced and remained stable in a time window of 40 to 120 minutes following the introduction of HRP in each of the legs (data not shown).
In subsequent experiments, a dose of 7.2 mg/kg of compound 3 was used with which a total activity of HRP as low as 0.025 U could be detected. The CL produced intensified as the concentration of HRP increased, yielding a positive linear relationship.
Nude mice used in this work, each weighing 20-26 g, were obtained from the Laboratory Animal Center of the Fourth Military Medical University, China. Research and animal sacrifice protocols are in accordance with the principles and guidelines adopted by the Fourth Military Medical University. The mice were kept for an acclimatization period of 7 days under laboratory conditions (temperature maintained at 22±2° C., 12-hr cycles of alternating illumination and darkness, and free access to food and water) prior to any imaging experiments. […]

[9] = tested on: HRP; assay: Oxidation by H2O2 catalyzed by trace HRP in vitro; assay type: biochemical, horseradish
[10] = tested on: gingival hemorrhage; assay: CLI of gingival hemorrhage; assay type: in vivo, nude mice; details: 200 μL of 2.0×10^−4 M
Experimental: as §1

[11] = mouse, in vivo
Experimental: Nude mice (24-26 g) were anesthetized followed by intraperitoneal injection of 3 or 2 (in 0.01 M PBS pH 7.4) using a dose of 660 μg of 3 or 2 per kilogram of the mouse body weight. The mice were housed individually and received food ad libitum. Urine was collected every 1 to 2 hours, and the collected samples were diluted to appropriate concentration with PBS. Probe 3 in each urine sample was quantified by comparing the intensity of its chemiluminescence resulting from its oxidation by NaClO with those of standard solutions. […] The potential toxicity of the probe was further evaluated with a sample of 50 mice using a dose of probe 3 at 72 mg/kg body weight of mouse.

[12] = In vitro chemiluminescence from oxidation by non-H2O2 ROS; details: PBS pH 7.4, ROS 1.0×10^−3 M, probe 1.0×10^−6 M
Experimental: (§2) Solutions of 3 and luminol were prepared in 0.01 M PBS (pH of 7.4). For all ROS other than H2O2, the reaction was carried out by mixing 200 μL of the ROS solution (1.0×10^−3 M) with 800 μL of the solution of probe 3 or luminol (1.0×10^−6 M). The voltage of the photomultiplier tube (PMT) was set at −400 V. In the case of H2O2, 200 μL of its solution (1.0×10^−2 M) was used, and the voltage of PMT was set at −800 V; the other conditions were identical to those used for the other ROS.

[13] = In vitro chemiluminescence kinetics of oxidation by H2O2
Experimental: as §2

Structure (SMILES): O=C(O)c1cc2c(=O)[nH][nH]c(=O)c2cc1-c1c2ccc(=O)cc-2oc2cc(O)ccc12 [compound 3]
- reduction in luminescence intensity ([1]; 7.2 mg/kg IP, hind legs 0.015 and 0.030 U, after 60 minutes): about 10%
- luminescence at HRP-Ab site ([1]; hind legs, 0.015 and 0.030 U): vivid
- luminescence at HRP-Ab site ([1]; right foreleg, 0.0030 U HRP-Ab): inadequate to produce any significant photon count or luminescence
- sensitivity for detection of ROS compared with luminol [2]: much more sensitive
- CLI of acute dermatitis [3]: highly efficient
- identification of sites of inflammation by luminescence [4]: clearly identified
- imaging of inflammation [5]: clearly showed inflammation
- acute toxicity [6]: does not appear that the probe or the resulting luminophore has significant acute toxicity
- solubility [7]: readily soluble
- HRP activity at which production of CL appeared saturated ([8]; 720 μg/kg): about 25.0 U
- lowest total activity of HRP detected ([8]; 7.2 mg/kg): ≤ 0.025 U
- dosage at which CL could be detected ([8]; mice): about 2 μg/kg
- luminescence from oxidation by H2O2 ([9]; HRP 5.0×10−5 mg/mL added): intense emission of a green light
- luminescence from oxidation by H2O2 ([9]; no HRP, probe 5.0×10^−3 M, H2O2 1.0×10^−4 M): no detectable luminescence
- identification of sites of inflammation by luminescence [10]: clearly identified
- metabolism during the imaging procedure [11]: not quickly metabolized
- uptake, IP versus IV injection [11]: comparable uptakes
- probe cleared by uresis ([11]; nude): about 90%
- CL response / sensitivity to ROS compared with luminol [12]: more sensitive
- CL response / sensitivity to ROS compared with luminol ([12]; listed as probe 3): much stronger responses
- duration of luminescence ([13]; H2O2 1.0×10^−2 M, PMT −800 V): more than 18 days
- sensitivity toward H2O2 compared with the other ROS ([13]; PMT −800 V needed for detection): insensitivity

Structure (SMILES): Nc1cccc2c(=O)[nH][nH]c(=O)c12 [luminol, Luminol, reference compound]
- CLI of acute dermatitis [3]: failed to produce any detectable signals
- time for luminescence to decay to the baseline ([13]; H2O2 1.0×10^−2 M, PMT −800 V): about 600 s

From patent US10912846B2, “Molecular probes for chemiluminescence imaging and in vivo detection of target molecules” (ARIZONA BOARD OF REGENTS ON BEHALF OF THE UNIVERSITY OF …, priority 2015, dated 2021)
